The numbers were not newly measured in patent US11744998B2, “Drug delivery devices with drug-permeable component and methods” (TARIS Biomedical LLC, priority 2015, dated 2023), which cites them from elsewhere.

The structures appear in SMILES notation. Counter-ions that a name gives are not always drawn.

The conditions of the data set: water at 37° C.

Consider `Nc1ccn([C@@H]2O[C@H](CO)[C@@H](O)C2(F)F)c(=O)n1` [gemcitabine HCl], for which the approximate solubility was about 80 mg/mL.

As to `Nc1ccn([C@@H]2O[C@H](CO)[C@@H](O)C2(F)F)c(=O)n1` [gemcitabine base], the approximate solubility is about 15 mg/mL.

For the compound `Cc1ccc(O)c([C@H](CCN(C(C)C)C(C)C)c2ccccc2)c1` [tolterodine tartrate], the approximate solubility is listed as about 12 mg/mL.

On to `O=C(O[C@H]1C[C@H]2CC[C@@H](C1)[N+]21CCCC1)C(O)(c1ccccc1)c1ccccc1` [trospium chloride], for which the approximate solubility was about 500 mg/mL.
